According to ChEMBL document CHEMBL1201862, “PubChem BioAssay data set” (2004):
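Results reflect a 48-hour exposure of cells in 96-well plates to compound at five concentrations. Abbreviation: GI50, concentration required for 50% inhibition of growth.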 Active and inactive are the calls of the source. Rule as the data show it: active = GI50 up to about 1.1 µM and inactive = higher.

Assays:
Experiment in all cases: NCI anticancer screen, dose series, 48 h
COLO 205 = tested on: COLO 205
EKVX = tested on: EKVX
RXF 393 = tested on: RXF 393
OVCAR-3 = tested on: OVCAR-3
SK-MEL-28 = tested on: SK-MEL-28
K562 = tested on: K562
HOP-62 = tested on: HOP-62
NCI-H460 = tested on: NCI-H460
HCT-116 = tested on: HCT-116
HCT-15 = tested on: HCT-15
SK-MEL-5 = tested on: SK-MEL-5
Malme-3M = tested on: Malme-3M
MDA-MB-435 = tested on: MDA-MB-435
PC-3 = tested on: PC-3
SN12C = tested on: SN12C
BT-549 = tested on: BT-549
SNB-19 = tested on: SNB-19
NCI-H23 = tested on: NCI-H23
TK-10 = tested on: TK-10

COc1ccc(C)cc1NC(=S)N/N=C/c1ccco1
GI50 (COLO 205): 21.8 µM (inactive)
GI50 (EKVX): 16.7 µM (inactive)
GI50 (RXF 393): 52.1 µM (inactive)
GI50 (OVCAR-3): 49.2 µM (inactive)
GI50 (SK-MEL-28): 60.8 µM (inactive)
GI50 (K562): 25.9 µM (inactive)
GI50 (HOP-62): 48.3 µM (inactive)
GI50 (NCI-H460): 34.1 µM (inactive)
GI50 (HCT-116): 36.2 µM (inactive)
GI50 (HCT-15): 34.2 µM
GI50 (SK-MEL-5): 14.7 µM (inactive)
GI50 (Malme-3M): 52.2 µM (inactive)
GI50 (MDA-MB-435): 16 µM (inactive)
GI50 (PC-3): 43.4 µM (inactive)
GI50 (SN12C): 45.3 µM (inactive)
GI50 (BT-549): 53.8 µM (inactive)
GI50 (SNB-19): 99.3 µM (inactive)
GI50 (NCI-H23): 53.2 µM (inactive)

CC1CC/C(=C\c2ccc(F)cc2)C2=C1C(c1ccc(F)cc1)N1C(=O)CSC1=N2 (centres undefined)
GI50 (COLO 205): > 100 µM (inactive)
GI50 (EKVX): 17.7 µM (inactive)
GI50 (RXF 393): 21.7 µM (inactive)
GI50 (OVCAR-3): > 100 µM (inactive)
GI50 (TK-10): > 100 µM (inactive)
GI50 (SK-MEL-28): > 100 µM (inactive)
GI50 (K562): 21.9 µM (inactive)
GI50 (NCI-H460): 30.8 µM (inactive)
GI50 (HCT-116): 50 µM (inactive)
GI50 (HCT-15): 43.3 µM
GI50 (SK-MEL-5): 40 µM (inactive)
GI50 (Malme-3M): > 100 µM (inactive)
GI50 (MDA-MB-435): 91 µM (inactive)
GI50 (PC-3): 25.6 µM (inactive)
GI50 (SN12C): > 100 µM (inactive)
GI50 (BT-549): > 100 µM (inactive)
GI50 (SNB-19): > 100 µM (inactive)
GI50 (NCI-H23): 58.5 µM (inactive)

CCNC12CCC(C1)C(C)(C)C2=O (centres undefined)
GI50 (COLO 205): > 100 µM (inactive)
GI50 (EKVX): > 100 µM (inactive)
GI50 (RXF 393): > 100 µM (inactive)
GI50 (OVCAR-3): > 100 µM (inactive)
GI50 (TK-10): > 100 µM (inactive)
GI50 (SK-MEL-28): > 100 µM (inactive)
GI50 (K562): > 100 µM (inactive)
GI50 (HOP-62): > 100 µM (inactive)
GI50 (NCI-H460): > 100 µM (inactive)
GI50 (HCT-116): > 100 µM (inactive)
GI50 (HCT-15): > 100 µM
GI50 (SK-MEL-5): > 100 µM (inactive)
GI50 (MDA-MB-435): > 100 µM (inactive)
GI50 (PC-3): > 100 µM (inactive)
GI50 (SN12C): > 100 µM (inactive)
GI50 (BT-549): > 100 µM (inactive)
GI50 (SNB-19): > 100 µM (inactive)
GI50 (NCI-H23): > 100 µM (inactive)

O=C(NNC(=O)c1c(Cl)c(Cl)c(Cl)c(Cl)c1-c1nc2ccccc2[nH]1)c1ccc(Cl)cc1
GI50 (COLO 205): 32.1 µM (inactive)
GI50 (EKVX): 44.2 µM (inactive)
GI50 (RXF 393): 43.4 µM (inactive)
GI50 (OVCAR-3): 65.2 µM (inactive)
GI50 (SK-MEL-28): 81.1 µM (inactive)
GI50 (K562): 35.8 µM (inactive)
GI50 (HOP-62): 61.9 µM (inactive)
GI50 (HCT-116): 46.3 µM (inactive)
GI50 (HCT-15): 34.4 µM
GI50 (SK-MEL-5): 38.3 µM (inactive)
GI50 (Malme-3M): 89.3 µM (inactive)
GI50 (MDA-MB-435): 24 µM (inactive)
GI50 (PC-3): 55 µM (inactive)
GI50 (SN12C): 37.7 µM (inactive)
GI50 (BT-549): 46.1 µM (inactive)
GI50 (SNB-19): 68.5 µM (inactive)
GI50 (NCI-H23): 40.6 µM (inactive)

CCOC(=O)C(NC(=O)Nc1ccc(Cl)cc1)(OC)C(F)(F)F (centres undefined)
GI50 (COLO 205): 12.2 µM (inactive)
GI50 (EKVX): 56.5 µM (inactive)
GI50 (RXF 393): > 100 µM (inactive)
GI50 (TK-10): 30.7 µM (inactive)
GI50 (SK-MEL-28): > 100 µM (inactive)
GI50 (K562): 0.832 µM (active)
GI50 (HCT-116): 1.94 µM (inactive)
GI50 (HCT-15): 0.248 µM
GI50 (SK-MEL-5): 15.1 µM (inactive)
GI50 (MDA-MB-435): 3.25 µM (inactive)
GI50 (PC-3): 32.3 µM (inactive)
GI50 (SN12C): 41 µM (inactive)
GI50 (BT-549): > 100 µM (inactive)
GI50 (SNB-19): 22.2 µM (inactive)
GI50 (NCI-H23): 37.9 µM (inactive)

O=C1CSC(c2cccc(Cl)c2)N1c1ccc(-c2ccc(-n3c(-c4ccccc4)nc4ccccc4c3=O)cc2)cc1 (centres undefined)
GI50 (COLO 205): 34.6 µM (inactive)
GI50 (EKVX): 59 µM (inactive)
GI50 (OVCAR-3): 36 µM (inactive)
GI50 (TK-10): 32.6 µM (inactive)
GI50 (SK-MEL-28): 75.3 µM (inactive)
GI50 (K562): 35.6 µM (inactive)
GI50 (HOP-62): 67.8 µM (inactive)
GI50 (NCI-H460): 32.9 µM (inactive)
GI50 (HCT-116): 45.6 µM (inactive)
GI50 (HCT-15): 33.5 µM
GI50 (SK-MEL-5): 25.5 µM (inactive)
GI50 (Malme-3M): 46 µM (inactive)
GI50 (MDA-MB-435): 52.1 µM (inactive)
GI50 (PC-3): 29.8 µM (inactive)
GI50 (SN12C): 62.4 µM (inactive)
GI50 (BT-549): 28.5 µM (inactive)
GI50 (SNB-19): > 100 µM (inactive)
GI50 (NCI-H23): 58.5 µM (inactive)

Cc1c(O)nc(-n2[nH]c3c(c2=O)CCCC3)[nH]c1=O
GI50 (COLO 205): > 100 µM (inactive)
GI50 (EKVX): > 100 µM (inactive)
GI50 (RXF 393): > 100 µM (inactive)
GI50 (TK-10): > 100 µM (inactive)
GI50 (SK-MEL-28): > 100 µM (inactive)
GI50 (K562): > 100 µM (inactive)
GI50 (NCI-H460): > 100 µM (inactive)
GI50 (HCT-116): > 100 µM (inactive)
GI50 (HCT-15): > 100 µM
GI50 (SK-MEL-5): > 100 µM (inactive)
GI50 (Malme-3M): > 100 µM (inactive)
GI50 (MDA-MB-435): > 100 µM (inactive)
GI50 (PC-3): > 100 µM (inactive)
GI50 (SN12C): > 100 µM (inactive)
GI50 (BT-549): > 100 µM (inactive)
GI50 (SNB-19): > 100 µM (inactive)
GI50 (NCI-H23): > 100 µM (inactive)

Cn1c(=O)c2c(nc3n(Cc4ccccc4)c(=O)c(Br)cn23)n(C)c1=O
GI50 (COLO 205): > 100 µM (inactive)
GI50 (EKVX): > 100 µM (inactive)
GI50 (RXF 393): > 100 µM (inactive)
GI50 (OVCAR-3): > 100 µM (inactive)
GI50 (TK-10): > 100 µM (inactive)
GI50 (SK-MEL-28): > 100 µM (inactive)
GI50 (K562): > 100 µM (inactive)
GI50 (HOP-62): 80.5 µM (inactive)
GI50 (NCI-H460): > 100 µM (inactive)
GI50 (HCT-116): > 100 µM (inactive)
GI50 (HCT-15): > 100 µM
GI50 (SK-MEL-5): > 100 µM (inactive)
GI50 (MDA-MB-435): > 100 µM (inactive)
GI50 (PC-3): > 100 µM (inactive)
GI50 (SN12C): > 100 µM (inactive)
GI50 (BT-549): > 100 µM (inactive)
GI50 (SNB-19): > 100 µM (inactive)
GI50 (NCI-H23): > 100 µM (inactive)
